Measured values as given in patent US20250129070A1, “BIFUNCTIONAL ANDROGEN RECEPTOR COMPOUNDS” (priority 2023, published 2025).

Key:
[1] = tested on: AR / CBP ternary complex; assay: Ternary complex formation assay (sandwich ELISA, AR capture / CBP detection) in VCaP cell lysates; type: cell-based; settings: 1.5 hours treatment, sandwich ELISA (AR capture, CBP or p300 detection)
Summary of the method: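 VCaP cells (50K/well, 5% charcoal-stripped FBS, ≥3 days) treated with bifunctional compound for 1.5 h, then lysed 30 min at 4 °C. AR captured on anti-AR (AR 441) plates; bound CBP or p300 detected by rabbit mAb plus HRP secondary. QuantaRed chemifluorescence read at ex 570/em 585, immediately and at 5 and 15 min.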

[2] = tested on: VCaP cells; assay: VCaP growth inhibition assay; type: cell-based; settings: 30 pM R1881, 9 days, CTG
Summary of the method: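 VCaP cells in phenol red-free DMEM/5% CSS, pre-incubated 72 h, then stimulated with R1881 (final 30 pM) and treated with 1:5 serial dilutions (final 100 nM to 10 fM) for 9 days at 37 °C. Viability by CellTiter-Glo luminescence; IC50 from 4-parameter logistic fit of RLU vs concentration.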

Row | EC50 [1] [nM] | IC50 [2] [nM] | Compound
1 | > 100 | 1 to 100 | C[C@@H]1CC(=O)Nc2cccc(-c3ccc4c(c3)c(-c3cnn(C)c3)nn4CCCOc3ncc(C(=O)NC4C(C)(C)C(Oc5ccc(C#N)c(Cl)c5)C4(C)C)cn3)c2N1 (stereo partly drawn) [Compound 49, N-[3-(3-chloro-4-cyano-phenoxy)-2,2,4,4-tetramethyl-cyclobutyl]-2-[3-[5-[(4R)-4-methyl-2-oxo-1,3,4,5-tetrahydro-1,5-benzodiazepin-6-yl]-3-(1-methylpyrazol-4-yl)indazol-1-yl]propoxy]pyrimidine-5-carboxamide]
2 | < 1 | 0.1 to 1 | COc1cc(OC2C(C)(C)C(NC(=O)c3ccc(N4CC(N5CCC6(CCC(n7nc(N8CCCc9cc(-c%10cnn(C)c%10)c(C(F)F)cc98)c8c7CCN(C(C)=O)C8)CC6)C5)C4)cc3)C2(C)C)ccc1C#N (centres unmarked) [Compound 401, 4-[3-[8-[5-acetyl-3-[7-(difluoromethyl)-6-(1-methylpyrazol-4-yl)-3,4-dihydro-2H-quinolin-1-yl]-6,7-dihydro-4H-pyrazolo[4,3-c]pyridin-1-yl]-2-azaspiro [4.5]decan-2-yl]azetidin-1-yl]-N-[3-(4-cyano-3-methoxy-phenoxy)-2,2,4,4-tetramethyl-cyclobutyl]benzamide]
3 | < 1 | ≤ 0.1 | CC(=O)N1CCc2c(c(N3CCCc4cc(-c5cnn(C)c5)c(C(F)F)cc43)nn2C2CCN(C3CCC4(CC3)CN(c3ncc(C(=O)NC5C(C)(C)C(Oc6ccc(C#N)c(Cl)c6)C5(C)C)cn3)C4)CC2)C1 (centres unmarked) [Compound 274, 2-[7-[4-[5-acetyl-3-[7-(difluoromethyl)-6-(1-methylpyrazol-4-yl)-3,4-dihydro-2H-quinolin-1-yl]-6,7-dihydro-4H-pyrazolo[4,3-c]pyridin-1-yl]-1-piperidyl]-2-azaspiro[3.5]nonan-2-yl]-N-[3-(3-chloro-4-cyano-phenoxy)-2,2,4,4-tetramethyl-cyclobutyl]pyrimidine-5-carboxamide]
4 | 1 to 10 | ≤ 0.1 | CC(=O)N1CCc2c(c(N3CCCc4ccc(C(F)F)cc43)nn2C2CCN(CC3CCN(c4ncc(C(=O)NC5C(C)(C)C(Oc6ccc(C#N)c(Cl)c6)C5(C)C)cn4)CC3)CC2)C1 (centres unmarked) [Compound 150, 2-[4-[[4-[5-acetyl-3-[7-(difluoromethyl)-3,4-dihydro-2H-quinolin-1-yl]-6,7-dihydro-4H-pyrazolo[4,3-c]pyridin-1-yl]-1-piperidyl]methyl]-1-piperidyl]-N-[3-(3-chloro-4-cyano-phenoxy)-2,2,4,4-tetramethyl-cyclobutyl]pyrimidine-5-carboxamide]
5 | < 1 | 0.1 to 1 | CC(=O)N1CCc2c(c(-c3cccc4cc(-c5cnn(C6CCN(C7CCN(c8ncc(C(=O)NC9C(C)(C)C(Oc%10ccc(C#N)c(Cl)c%10)C9(C)C)cn8)CC7)C6)c5)ncc34)nn2C2CCOCC2)C1 (centres unmarked) [Compound 222, 2-[4-[3-[4-[8-(5-acetyl-1-tetrahydropyran-4-yl-6,7-dihydro-4H-pyrazolo[4,3-c]pyridin-3-yl)-3-isoquinolyl]pyrazol-1-yl]pyrrolidin-1-yl]-1-piperidyl]-N-[3-(3-chloro-4-cyano-phenoxy)-2,2,4,4-tetramethyl-cyclobutyl]pyrimidine-5-carboxamide]
6 | < 1 | 1 to 100 | CC(=O)N1CCc2c(c(N3CCCc4cc(C#N)ccc43)nn2C2CC3(C2)CN(C(=O)C2CC4(C2)CN(c2ncc(C(=O)NC5C(C)(C)C(Oc6ccc(C#N)c(Cl)c6)C5(C)C)cn2)C4)C3)C1 (centres unmarked) [Compound 220, 2-[6-[6-[5-acetyl-3-(6-cyano-3,4-dihydro-2H-quinolin-1-yl)-6,7-dihydro-4H-pyrazolo[4,3-c]pyridin-1-yl]-2-azaspiro[3.3]heptane-2-carbonyl]-2-azaspiro[3.3]heptan-2-yl]-N-[3-(3-chloro-4-cyano-phenoxy)-2,2,4,4-tetramethyl-cyclobutyl]pyrimidine-5-carboxamide]
7 | < 1 | ≤ 0.1 | CC(=O)N1CCc2c(c(N3CCCc4cc(-c5cnn(C)c5)c(C(F)F)cc43)nn2C2CCN(C[C@H]3CCN(c4ncc(C(=O)NC5C(C)(C)C(Oc6ccc(C#N)c(Cl)c6)C5(C)C)cn4)C[C@H]3C)CC2)C1 (some centres unmarked) [Compound 364]
8 | < 1 | 0.1 to 1 | COc1cc(OC2C(C)(C)C(NC(=O)c3ccc(N4CC(C)C(CN5CCC(n6nc(N7CCCc8cc(C#N)c(C(F)F)cc87)c7c6CCN(C(C)=O)C7)CC5)C(C)C4)cc3)C2(C)C)ccc1C#N (centres unmarked) [Compound 459, 4-[4-[[4-[5-acetyl-3-[6-cyano-7-(difluoromethyl)-3,4-dihydro-2H-quinolin-1-yl]-6,7-dihydro-4H-pyrazolo[4,3-c]pyridin-1-yl]-1-piperidyl]methyl]-3,5-dimethyl-1-piperidyl]-N-[3-(4-cyano-3-methoxy-phenoxy)-2,2,4,4-tetramethyl-cyclobutyl]benzamide]
9 | < 1 | 0.1 to 1 | COc1cc(OC2C(C)(C)C(NC(=O)c3ccc(N4CC(OC5CCC(n6nc(N7CCCc8cc(-c9cnn(C)c9)c(C(F)F)cc87)c7c6CCN(C(C)=O)C7)CC5)C4)cc3)C2(C)C)ccc1C#N (centres unmarked) [Compound 342, 4-[3-[4-[5-acetyl-3-[7-(difluoromethyl)-6-(1-methylpyrazol-4-yl)-3,4-dihydro-2H-quinolin-1-yl]-6,7-dihydro-4H-pyrazolo[4,3-c]pyridin-1-yl]cyclohexoxy]azetidin-1-yl]-N-[3-(4-cyano-3-methoxy-phenoxy)-2,2,4,4-tetramethyl-cyclobutyl]benzamide]
10 | > 100 | > 100 | CC(=O)N1CCc2c(c(N3CCCc4cc(-c5cnn(C)c5)c(C(F)F)cc43)nn2C2CCN(CCc3ncc(C(=O)NC4C(C)(C)C(Oc5ccc(C#N)c(Cl)c5)C4(C)C)cn3)CC2)C1 (centres unmarked) [Compound 92, 2-[2-[4-[5-acetyl-3-[7-(difluoromethyl)-6-(1-methylpyrazol-4-yl)-3,4-dihydro-2H-quinolin-1-yl]-6,7-dihydro-4H-pyrazolo[4,3-c]pyridin-1-yl]-1-piperidyl]ethyl]-N-[3-(3-chloro-4-cyano-phenoxy)-2,2,4,4-tetramethyl-cyclobutyl]pyrimidine-5-carboxamide]
11 | 1 to 10 | 0.1 to 1 | CC(=O)N1CCc2c(c(N3CCc4cc(-c5cnn(C)c5)c(C(F)F)cc43)nn2C2CCN(CC3CCN(c4ncc(C(=O)NC5C(C)(C)C(Oc6ccc(C#N)c(Cl)c6)C5(C)C)cn4)CC3)CC2)C1 (centres unmarked) [Compound 13, 2-[4-[[4-[5-acetyl-3-[6-(difluoromethyl)-5-(1-methylpyrazol-4-yl)indolin-1-yl]-6,7-dihydro-4H-pyrazolo[4,3-c]pyridin-1-yl]-1-piperidyl]methyl]-1-piperidyl]-N-[3-(3-chloro-4-cyano-phenoxy)-2,2,4,4-tetramethyl-cyclobutyl]pyrimidine-5-carboxamide]
12 | > 100 | > 100 | C[C@@H]1CC(=O)Nc2cccc(-c3ccc4c(c3)c(-c3cnn(C)c3)nn4CC3CCN(c4ncc(C(=O)NC5C(C)(C)C(Oc6ccc(C#N)c(Cl)c6)C5(C)C)cn4)CC3)c2N1 (stereo partly drawn) [Compound 58, N-[3-(3-chloro-4-cyano-phenoxy)-2,2,4,4-tetramethyl-cyclobutyl]-2-[4-[[5-[(4R)-4-methyl-2-oxo-1,3,4,5-tetrahydro-1,5-benzodiazepin-6-yl]-3-(1-methylpyrazol-4-yl)indazol-1-yl]methyl]-1-piperidyl]pyrimidine-5-carboxamide]
13 | 1 to 10 | 0.1 to 1 | COc1cc(OC2C(C)(C)C(NC(=O)c3ccc(N4CCC(CCn5cc(-c6cc7cccc(-c8nn(C9CCOCC9)c9c8CN(C(C)=O)CC9)c7cn6)cn5)CC4)cc3)C2(C)C)ccc1C#N (centres unmarked) [Compound 244, 4-[4-[2-[4-[8-(5-acetyl-1-tetrahydropyran-4-yl-6,7-dihydro-4H-pyrazolo[4,3-c]pyridin-3-yl)-3-isoquinolyl]pyrazol-1-yl]ethyl]-1-piperidyl]-N-[3-(4-cyano-3-methoxy-phenoxy)-2,2,4,4-tetramethyl-cyclobutyl]benzamide]
14 | < 1 | 0.1 to 1 | CC(=O)N1CCc2c(c(Nc3ccc(-c4cnn(C)c4)cc3F)nn2C2CCN(CC3CCN(c4ncc(C(=O)NC5C(C)(C)C(Oc6ccc(C#N)c(Cl)c6)C5(C)C)cn4)CC3)CC2)C1 (centres unmarked) [Compound 186, 2-[4-[[4-[5-acetyl-3-[2-fluoro-4-(1-methylpyrazol-4-yl)anilino]-6,7-dihydro-4H-pyrazolo[4,3-c]pyridin-1-yl]-1-piperidyl]methyl]-1-piperidyl]-N-[3-(3-chloro-4-cyano-phenoxy)-2,2,4,4-tetramethyl-cyclobutyl]pyrimidine-5-carboxamide]

Row | Compound | EC50 [1] [nM] | IC50 [2] [nM]
15 | COc1cc(OC2C(C)(C)C(NC(=O)c3ccc(OC4CC(N5CCC(n6nc(N7CCCc8cc(-c9cnn(C)c9)c(C(F)F)cc87)c7c6CCN(C(C)=O)C7)CC5)C4)cc3)C2(C)C)ccc1C#N (centres unmarked) [Compound 375, 4-[3-[4-[5-acetyl-3-[7-(difluoromethyl)-6-(1-methylpyrazol-4-yl)-3,4-dihydro-2H-quinolin-1-yl]-6,7-dihydro-4H-pyrazolo[4,3-c]pyridin-1-yl]-1-piperidyl]cyclobutoxy]-N-[3-(4-cyano-3-methoxy-phenoxy)-2,2,4,4-tetramethyl-cyclobutyl]benzamide] | < 1 | 0.1 to 1
16 | COc1cc(OC2C(C)(C)C(NC(=O)c3ccc(N4CCC(C(=O)N5CCC(n6nc(-c7cccc8cc(C9CC9)c(C(F)F)cc78)c7c6CCN(C(C)=O)C7)CC5)CC4)cc3)C2(C)C)ccc1C#N (centres unmarked) [Compound 257, 4-[4-[4-[5-acetyl-3-[6-cyclopropyl-7-(difluoromethyl)-1-naphthyl]-6,7-dihydro-4H-pyrazolo[4,3-c]pyridin-1-yl]piperidine-1-carbonyl]-1-piperidyl]-N-[3-(4-cyano-3-methoxy-phenoxy)-2,2,4,4-tetramethyl-cyclobutyl]benzamide] | < 1 | 0.1 to 1
